Measurements reported in US12479886B2, “Inhibitors of IL-15 and their use in treating autoimmune/inflammatory disorders” (University of Houston System, priority 2019, dated 2025).
Bridge positions count the residues as written; N and C are the ends. Square brackets hold non-standard residues; d marks the D form. Peptide text beside a SMILES is read from it. I, II: the chains in the order shown. N(4-MeOBn)Gly = COc1ccc(CNCC(=O)O)cc1; Nleu = CC(C)CNCC(=O)O; Nlys = NCCCCNCC(=O)O; Nme = COCCNCC(=O)O

Assays:
IL-15 = test: CTLL-2 proliferation assay (WST-1); assay type: cell-based, murine
Description: (§1) FIGS. 7A-C. IFRA3Q1 inhibits the IL-15 activity. To determine if IFRA3 and its derivatives can regulate the function of IL-15, the inventors performed CTLL-2 proliferation assay. The proliferation of murine T cell line CTLL-2 depends on the presence and activity of IL-15. CTLL-2 cells were seeded into 96-well plates and treated with IL-15 in the presence or absence of IFRA3D1, IFRA3T1, or IFRA3Q1 at indicated concentrations for 72 hours. CTLL-2 cell proliferation was measured by WST-1 assay.
as §1, with “To determine” for “FIGS. 7A-C. IFRA3Q1 inhibits the IL-15 activity. To determine”, “WST-1 assay. […] IFRA3 and its derivatives had no effects on cell proliferation by themselves.” for “WST-1 assay.”

[1] = molecular target: T1, IL-15 receptor a (IL15RA) (Homo sapiens, UniProt Q13261); test: in vitro pull-down assay with peptoid-conjugated beads and HeLa cell lysates, Coomassie staining and western blot; assay type: binding; details: beads conjugated with compound, 4° C. overnight; band identity confirmed by western blot
T1 construct: Cell lysates from IL-15RA positive HeLa cells (expressing IL15RA) or IL-15RA negative HeLa cells (transfected with IL15RA siRNA to knock down IL15RA); endogenous in cells; host or cells: HeLa
Description: FIGS. 2A-B. Confirmation of the binding of IFRA3 to IL-15 receptor a subunit. […] Cell lysates from IL-15RA positive HeLa cells (expressing IL15RA) or IL-15RA negative HeLa cells (transfected with IL15RA siRNA to knock down IL15RA) were incubated with beads conjugated with IFRA1, or IFRA2, or IFRA3 at 4° C. overnight. The beads were then washed with RIPA buffer for 3 times, and the binding proteins were eluted with 1% SDS. The yielded lysates were then applied onto 12% SDS-PAGE gel and subjected to Coomassie blue staining. (FIG. 2B) Protein in the gel was transferred to membrane and identified by western blotting analysis with antibody against IL-15RA.
Cell lysates from IL-15RA positive HeLa cells (expressing IL15RA) or IL-15RA negative HeLa cells (transfected with IL15RA siRNA to knock down IL15RA) were incubated with beads conjugated with IFRA1, or IFRA2, or IFRA3 at 4° C. overnight. The beads were then washed with RIPA buffer for 3 times, and the binding proteins were eluted with 1% SDS. The yielded lysates were then applied onto 12% SDS-PAGE gel and subjected to Coomassie blue staining. Protein in the gel was transferred to membrane and identified by western blotting analysis with antibody against IL-15RA. […] Western blot results confirmed the identity of the protein band as IL15RA. Thus, the data support that IFRA3 can bind to IL15RA.

IL-15 Rα = molecular target: T2, IL-15 Rα (Homo sapiens, UniProt Q13261); test: on-bead two-color (OBTC) screening and validation with IL-15Rα expressing and non-expressing HeLa cells; assay type: cell-based
T2 construct: Cell lysates from IL-15RA positive HeLa cells (expressing IL15RA) or IL-15RA negative HeLa cells (transfected with IL15RA siRNA to knock down IL15RA); endogenous in cells; host or cells: HeLa
Description: FIGS. 1A-C. Discovery of the IL-15 receptor a subunit-binding compound IFRA3 through OBTC screening of a peptoid library. To identify compounds that can bind to IL-15 receptor, the inventors performed an on-bead two-color (OBTC) screening experiment. HeLa cells expressing IL-15 Rα were stained with red Qdot® […] nanocrystals and HeLa cells not expressing IL-15 Rα were stained with green Qdot® […] nanocrystals. One million green cells and one million red cells were mixed and incubated for 1 hour with 50,000 peptoid compound library beads containing one-compound on one bead at 23° C. Beads that bind to only red cells but not green cells were isolated under fluorescent microscope and the compound attached to the bead was identified by mass spectrometry. (FIG. 1A) Illustration of the OBTC screening mechanism. (FIG. 1B) One example of the bead that binds only the red cells. (FIG. 1C) The chemical structure of IFRA3, one of the three hits discovered in this screening.
FIG. 3. Validation of the binding of IFRA3 to IL-15 receptor a subunit using OBTC. The compound IFRA3 was resynthesized on the beads and were incubated with IL-15 RA expressing HeLa cells (red stained) and IL-15RA negative HeLa cells (green stained) individually as well as 1:1 mixture of red and green cells. […]

T2 sequence (Q13261 31-267): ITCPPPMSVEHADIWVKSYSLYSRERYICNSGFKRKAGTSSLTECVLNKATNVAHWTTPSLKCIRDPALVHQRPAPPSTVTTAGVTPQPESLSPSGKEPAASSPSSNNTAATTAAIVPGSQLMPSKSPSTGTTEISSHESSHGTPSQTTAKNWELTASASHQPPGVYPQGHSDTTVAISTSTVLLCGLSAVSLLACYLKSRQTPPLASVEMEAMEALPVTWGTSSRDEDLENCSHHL
T1 sequence (Q13261 31-267): as above

| SMILES | inhibition of IL-15-stimulated proliferation of CTLL-2 cells (IL-15; with IL-15, 72 hours, WST-1) | pull-down of IL15RA from cell lysates [1] | binding of cells to beads with resynthesized compound (OBTC validation) (IL-15 Rα; IL-15RA expressing (red) and negative (green) HeLa cells, individually and as 1:1 mixture) | binding to IL-15 receptor subunit a in OBTC screen (hit) (IL-15 Rα; peptoid library beads, red IL-15Rα+ and green IL-15Rα- HeLa cells, 1 hour, 23° C.) | effect on cell proliferation by themselves (IL-15; CTLL-2 cells, compound alone without IL-15) |
| --- | --- | --- | --- | --- | --- |
| COCCN(CC(=O)NC(CCCCN)C(=O)NC(CCSC)C(=O)NCCCCC(NC(=O)C(CCCCNC(=O)C(CCSC)NC(=O)C(CCCCN)NC(=O)CN(CCOC)C(=O)CN(CCCCN)C(=O)CN(CCCCN)C(=O)CN(CCOC)C(=O)CN(Cc1ccc(OC)cc1)C(=O)CNCC(C)C)NC(=O)C(CCSC)NC(=O)C(CCCCN)NC(=O)CN(CCOC)C(=O)CN(CCCCN)C(=O)CN(CCCCN)C(=O)CN(CCOC)C(=O)CN(Cc1ccc(OC)cc1)C(=O)CNCC(C)C)C(N)=O)C(=O)CN(CCCCN)C(=O)CN(CCCCN)C(=O)CN(CCOC)C(=O)CN(Cc1ccc(OC)cc1)C(=O)CNCC(C)C (centres unmarked) [IFRA3T1] (I: H-[Nleu][N(4-MeOBn)Gly][Nme][Nlys][Nlys][Nme]KMKK-NH2 / II: H-[Nleu][N(4-MeOBn)Gly][Nme][Nlys][Nlys][Nme]KM / III: H-[Nleu][N(4-MeOBn)Gly][Nme][Nlys][Nlys][Nme]KM; amide I:9-II:C, I:10-III:C; configuration not given here) | less effects | – | – | – | – |
| COCCN(CC(=O)NC(CCCCN)C(=O)NC(CCSC)C(N)=O)C(=O)CN(CCCCN)C(=O)CN(CCCCN)C(=O)CN(CCOC)C(=O)CN(Cc1ccc(OC)cc1)C(=O)CNCC(C)C (centres unmarked) [IFRA3] (H-[Nleu][N(4-MeOBn)Gly][Nme][Nlys][Nlys][Nme]KM-NH2; configuration not given here) | – | can pull down a protein band corresponding to the size of IL15RA | only red cells bind to the beads, and the green cells do not bind | binds to the IL-15 receptor subunit a | no effects |
